Laboratory results reported in ChEMBL document CHEMBL4118021, “Studies of TAK1-centered polypharmacology with novel covalent TAK1 inhibitors” (Bioorg Med Chem, 2017).
Active and inactive are the calls of the source. No cut-off for these calls is given here.

How the values were obtained:
Format in all cases: cell-based
[1] = molecular target: Tight junction protein 1 (Homo sapiens) (UniProt Q07157); experiment: Binding affinity to TJP1 in human NCI-H358 cells at 1 uM by mass spectrometry based pull down assay
Chain of Tight junction protein 1 (Homo sapiens) (Q07157 whole entry): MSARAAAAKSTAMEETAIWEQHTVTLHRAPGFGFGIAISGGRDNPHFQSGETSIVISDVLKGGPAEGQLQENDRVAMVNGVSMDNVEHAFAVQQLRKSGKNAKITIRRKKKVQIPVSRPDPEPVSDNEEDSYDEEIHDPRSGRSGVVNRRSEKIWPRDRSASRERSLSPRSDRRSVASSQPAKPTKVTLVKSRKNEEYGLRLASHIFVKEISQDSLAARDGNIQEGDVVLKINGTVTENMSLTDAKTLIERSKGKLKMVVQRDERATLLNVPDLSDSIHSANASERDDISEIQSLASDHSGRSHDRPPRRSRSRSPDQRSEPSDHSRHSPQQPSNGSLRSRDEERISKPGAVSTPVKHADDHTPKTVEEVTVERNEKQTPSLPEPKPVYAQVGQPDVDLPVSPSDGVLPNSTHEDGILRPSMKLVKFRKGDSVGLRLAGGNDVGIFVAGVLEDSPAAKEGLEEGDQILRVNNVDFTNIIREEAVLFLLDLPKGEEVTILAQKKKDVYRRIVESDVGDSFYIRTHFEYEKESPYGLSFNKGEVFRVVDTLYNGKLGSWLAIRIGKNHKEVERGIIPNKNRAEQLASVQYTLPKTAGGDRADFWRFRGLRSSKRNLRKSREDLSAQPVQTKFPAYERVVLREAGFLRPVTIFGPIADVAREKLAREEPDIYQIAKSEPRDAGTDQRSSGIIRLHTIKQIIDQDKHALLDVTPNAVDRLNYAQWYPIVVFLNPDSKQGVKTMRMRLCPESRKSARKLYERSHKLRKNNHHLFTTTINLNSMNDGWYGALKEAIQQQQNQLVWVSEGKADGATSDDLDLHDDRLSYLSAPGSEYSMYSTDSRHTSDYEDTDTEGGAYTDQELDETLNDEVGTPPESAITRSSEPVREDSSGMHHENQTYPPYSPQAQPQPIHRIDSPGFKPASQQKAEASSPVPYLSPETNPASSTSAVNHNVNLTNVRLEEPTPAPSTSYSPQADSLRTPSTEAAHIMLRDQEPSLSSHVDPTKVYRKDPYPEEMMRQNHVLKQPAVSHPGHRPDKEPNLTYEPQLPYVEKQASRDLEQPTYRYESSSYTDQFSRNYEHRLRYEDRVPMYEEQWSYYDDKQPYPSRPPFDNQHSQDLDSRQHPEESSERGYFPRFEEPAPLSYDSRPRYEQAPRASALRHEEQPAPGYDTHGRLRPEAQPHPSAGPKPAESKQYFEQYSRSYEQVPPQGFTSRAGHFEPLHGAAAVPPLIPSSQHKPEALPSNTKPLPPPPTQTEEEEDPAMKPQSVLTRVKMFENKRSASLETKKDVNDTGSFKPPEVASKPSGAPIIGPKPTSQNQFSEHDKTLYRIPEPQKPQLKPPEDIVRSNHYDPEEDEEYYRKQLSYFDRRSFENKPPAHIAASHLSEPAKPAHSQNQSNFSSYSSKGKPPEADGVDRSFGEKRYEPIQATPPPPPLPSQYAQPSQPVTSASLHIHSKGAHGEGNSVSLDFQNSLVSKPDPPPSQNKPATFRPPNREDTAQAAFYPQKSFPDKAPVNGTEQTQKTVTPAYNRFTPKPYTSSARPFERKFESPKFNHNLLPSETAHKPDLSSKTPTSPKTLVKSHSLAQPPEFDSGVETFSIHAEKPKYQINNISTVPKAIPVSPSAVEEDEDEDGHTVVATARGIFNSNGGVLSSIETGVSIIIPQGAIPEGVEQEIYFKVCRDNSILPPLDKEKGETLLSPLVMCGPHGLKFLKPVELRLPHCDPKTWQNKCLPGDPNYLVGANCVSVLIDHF

[2] = molecular target: 14-3-3 protein epsilon (Homo sapiens) (UniProt P62258); experiment: Binding affinity to YWHAE in human NCI-H358 cells at 1 uM by mass spectrometry based pull down assay
Chain of 14-3-3 protein epsilon (Homo sapiens) (P62258 whole entry): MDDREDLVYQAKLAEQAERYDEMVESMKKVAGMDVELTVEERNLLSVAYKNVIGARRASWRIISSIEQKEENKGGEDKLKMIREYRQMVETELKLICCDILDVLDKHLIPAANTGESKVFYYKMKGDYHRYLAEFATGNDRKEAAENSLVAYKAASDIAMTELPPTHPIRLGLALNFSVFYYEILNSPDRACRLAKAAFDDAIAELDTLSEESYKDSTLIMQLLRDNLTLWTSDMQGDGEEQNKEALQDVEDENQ

[3] = molecular target: MOB kinase activator 1B (Homo sapiens) (UniProt Q7L9L4); experiment: Binding affinity to MOB1B in human NCI-H23 cells at 1 uM by mass spectrometry based pull down assay
Chain of MOB kinase activator 1B (Homo sapiens) (Q7L9L4 whole entry): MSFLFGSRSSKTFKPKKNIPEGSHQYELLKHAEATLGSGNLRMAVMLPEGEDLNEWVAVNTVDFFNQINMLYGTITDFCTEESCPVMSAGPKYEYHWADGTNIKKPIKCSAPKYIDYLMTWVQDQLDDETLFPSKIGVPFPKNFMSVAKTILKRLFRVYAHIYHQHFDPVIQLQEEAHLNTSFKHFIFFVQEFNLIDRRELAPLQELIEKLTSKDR

[4] = molecular target: Thioredoxin-dependent peroxide reductase, mitochondrial (Homo sapiens) (UniProt P30048); experiment: Binding affinity to PRDX3 in human NCI-H23 cells at 1 uM by mass spectrometry based pull down assay
Chain of Thioredoxin-dependent peroxide reductase, mitochondrial (Homo sapiens) (P30048 whole entry): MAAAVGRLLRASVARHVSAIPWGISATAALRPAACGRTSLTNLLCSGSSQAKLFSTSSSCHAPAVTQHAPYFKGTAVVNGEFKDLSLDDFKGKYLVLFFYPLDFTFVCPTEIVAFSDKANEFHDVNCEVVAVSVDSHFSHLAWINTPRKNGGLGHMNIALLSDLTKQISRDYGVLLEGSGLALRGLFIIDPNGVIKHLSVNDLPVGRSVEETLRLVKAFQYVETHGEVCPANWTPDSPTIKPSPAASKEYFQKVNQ

[5] = molecular target: 80S Ribosome (Homo sapiens) (UniProt P08865+P42677+P62753+P15880+P23396+P61247+P62701+P22090+P46782+P62081+P62241+P46781+P46783+P62280+P25398+P62277+P62263+P62841+P62244+P62249+P08708+P62269+P39019+P60866+P63220+P62266+P62847+P62851+P62854+P62979+P62857+P62273+P62861+P39023+P36578+P46777+Q02878+P18124+P62424+P62917+P32969+P27635+P62906+P62913+P30050+P26373+P40429+P50914+P61313+P18621+Q07020+Q02543+P84098+P46778+P35268+P62829+P62750+P83731+P61254+P61353+P46776+P46779+P47914+P62888+P62899+P62910+P49207+P42766+P18077+Q9Y3U8+P83881+P61927+P61513+P63173+P62891+P62945+P05388+P05386); experiment: Binding affinity to RPS17 in human NCI-H23 cells at 1 uM by mass spectrometry based pull down assay

Activity [1]: Active
Activity [2]: Active
Activity [3]: Active
Activity [4]: Active
Activity [5]: Active
SMILES: C=CC(=O)Nc1ccccc1Nc1nc(Nc2ccc(N3CCN(CCOCCOCCOCCNC(=O)CCCC[C@@H]4SC[C@@H]5NC(=O)N[C@@H]54)CC3)cc2)ncc1Cl
